Data as given in US5606037A, “Processes antineoplastic heteronaphthoquinones” (BioChem Pharma Inc., priority 1995, dated 1997).
Counter-ions that a name gives are not always drawn.

Experiments:
Format in all cases: cell-based, Human
[1] = system: SKOV3 (Ovarian adenocarcinoma); experiment: In vitro cytotoxicity, microculture tetrazolium (MTT) assay, SKOV3; conditions: Homo sapiens, SK-OV-3; SKOV3 ovarian adenocarcinoma; 48 h with compound, further 48 h, MTT; Table 1
Procedure, shortened: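 Cells plated overnight, then exposed to compound (1:3 dilutions, 100 μM to 1.7 nM, quadruplicate) 48 h at 37 °C, followed by 48 h in fresh medium. MTT 4 h, formazan extracted in DMSO/Sorensen's buffer pH 10.5, A570; four-parameter logistic fit on 0–100% survival scale.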

[2] = system: SKVLB (Ovarian; multidrug resistant); experiment: In vitro cytotoxicity, microculture tetrazolium (MTT) assay, SKVLB; conditions: Homo sapiens; SKVLB multidrug resistant ovarian; 48 h with compound, further 48 h, MTT; Table 1
Procedure, shortened: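 Multidrug-resistant SKVLB ovarian cells, 1,500–4,000 per well, exposed to compound (1:3 dilutions, 100 μM to 1.7 nM, quadruplicate) for 48 h at 37 °C, then 48 h in fresh medium. Viability by MTT reduction, formazan read at 570 nm; four-parameter logistic fit on a 0–100% survival scale.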

[3] = system: HT 29 (Colon adenocarcinoma); experiment: In vitro cytotoxicity, microculture tetrazolium (MTT) assay, HT29; conditions: Homo sapiens, HT-29, 48 h with compound, further 48 h, Table 1
Procedure, shortened: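 HT29 cells exposed to compound (1:3 series, 100 μM to 1.7 nM, quadruplicate) for 48 h at 37 °C, then 48 h in fresh medium. Viability by MTT reduction, formazan absorbance at 570 nm; four-parameter logistic fit on 0-100% survival scale.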

[4] = system: Lox (Melanoma); experiment: In vitro cytotoxicity, microculture tetrazolium (MTT) assay, LOX; conditions: Homo sapiens, 48 h with compound, further 48 h, Table 1
Procedure, shortened: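 LOX melanoma cells, 1,500–4,000 per well, exposed to compound (1:3 dilutions, 100 μM to 1.7 nM) for 48 h at 37° C., then 48 h in fresh medium. MTT reduction read at 570 nm; four-parameter logistic fit normalized to 0–100% survival.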

[5] = system: T47D (Ductal carcinoma of breast); experiment: In vitro cytotoxicity, microculture tetrazolium (MTT) assay, T47D; conditions: Homo sapiens, 48 h with compound, further 48 h, Table 1
Procedure, shortened: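 Adherent cells (1,500-4,000/well) were exposed to compound in 1:3 dilutions from 100 μM to 1.7 nM, in quadruplicate, for 48 h at 37° C, followed by 48 h in fresh medium. MTT formazan was read at 570 nm, and data were fitted by four-parameter logistic on a 0-100% survival scale.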

Row | Structure (SMILES) | IC50 [1] | IC50 [2] | IC50 [3] | IC50 [4] | IC50 [5]
1 | COC(=O)[C@H](CC(C)C)NC(=O)[C@@H](N)CO[C@H]1O[C@H](C(C)=O)CC2=C1C(=O)c1ccccc1C2=O [BCH2000, (1S,2'S,3S,5'S)-Methyl-(1-O-[Serine-Leucine-Me ester]-5,10-dioxo-3,4,5,10-tetrahydro-1-H-naphtho[2,3-c]pyran-3-yl) ketone hydrochloride] | 0.095 µM | 6.64 µM | 0.0378 µM | 0.0905 µM | 0.338 µM
2 | COC(=O)C1=CC2=C(C(=O)c3ccccc3C2=O)C(OC)O1 (stereo not shown) [BCH2160, 1-methoxy-3-methoxy carbonyl-5,10-dioxo-5,10-dihydro-1H-naphtho-[2,3-c]-pyran] | 4.93 µM | 9.12 µM | 15.7 µM | 7.43 µM | 9.59 µM
3 | CC[C@H]1CO[C@H](O[C@H]2C[C@H](NC(=O)C(F)(F)F)[C@H](O)[C@H](C)O2)C2=C1C(=O)c1ccccc1C2=O [BCH2091, (1'S, 1R, 4R)-5,10-dioxo-4-ethyl-1-(2',3',6'-trideoxy-3'-trifluoroacetamido-L-lyxohexopyranose)-3,4,5,10-tetrahydro-1H-naphtho-[2,3-c]pyran] | 13.4 µM | 32 µM | 11.3 µM | 3.3 µM | 16 µM
4 | CC(=O)[C@@H]1CC2=C(C(=O)c3ccc(O)cc3C2=O)[C@@H](O[C@H]2C[C@H](NC(=O)C(F)(F)F)[C@H](O)[C@H](C)O2)O1 [BCH1181, (1'S,1R,3S)-Methyl (5,10-dioxo-1-(2',3',6'-trideoxy-3'-trifluoroacetamido-L-lyxohexopyranose)-7-hydroxy-3,4,5, 10-tetrahydro[2,3-C]pyran-3-yl) ketone] | 2.26 µM | 8.48 µM | 0.536 µM | 3.07 µM | 9.23 µM
5 | CC(=O)C1CC2=C(C(=O)c3ccccc3C2=O)C(OCC2CCCNC2)O1 (mixture of isomers) [BCH2061, Methyl-(1-O-[3-piperidinemethanol]-5,10-dioxo-3,4,5,10-tetrahydronaphthaleno-[2,3-c]pyran-3-yl) ketone hydrochloride salt] | 0.0083 µM | 0.141 µM | 0.054 µM | 0.045 µM | 0.27 µM
6 | CC(=O)CC1CC2=C(C(=O)c3cccc(O)c3C2=O)C(O[C@H]2C[C@H](NC(=O)C(F)(F)F)[C@H](O)[C@H](C)O2)O1 (mixture of isomers) [BCH2098, (1'-S, 1-S, 3-R) and (1'-S, 1-R, 3-S)-1-(6-hydroxy-1-(2',3',6'-trideoxy-3'-trifluoroacetamido, 4-hydroxy-L-lyxopyranose)-5,10-dioxo-3,4,5,10 tetrahydronaphtho-[2,3-c]pyran-3-yl) propane-2-one] | 8 µM | 30 µM | 17 µM | 4.2 µM | 10 µM
7 | CC(=O)[C@H]1CC2=C(C(=O)c3ccccc3C2=O)[C@H](O[C@@H]2O[C@@H](C)[C@@H](O)[C@@H](O)[C@H]2I)O1 [BCH2014, (1'S,1S,3R)-methyl-(1-[2',6'-dideoxy-3',4'-dihydroxy-2'-iodo-L-lyxohexopyranose]-5,10-dioxo-3,4,5,10-tetrahydronaphtho[2,3-c]-pyran-3-yl)-ketone] | 21.5 µM | 39.8 µM | 61.3 µM | 35.9 µM | 61.8 µM
8 | CO[C@H]1C[C@H](O[C@H]2O[C@H](C(C)=O)C[C@]34O[C@]23C(=O)c2ccccc2C4=O)O[C@@H](C)[C@H]1OS(C)(=O)=O [BCH2141, (1'-S,1-R,3-S,4a-S,10a-S)-methyl-(1-[2',3',4',6'-tetradeoxy-3'-methoxy-4'-O-methanesulfonyl-L-lyxohexopyranose)-4a,10a-epoxy-5,10-dioxo-3,4,5,10-tetrahydronaphtho-[2,3-c]pyran-3-yl) ketone] | 8.12 µM | 9.96 µM | 6.44 µM | 1.82 µM | 3.79 µM
9 | CC(=O)C1CC2=C(CO1)C(=O)c1ccc(O)cc1C2=O (stereo not shown) [BCH1129, Methyl (7-hydroxy-5,10-dioxo-3,4,5,10-tetrahydronaphtho [2,3-C]pyran-3-yl) ketone] | 73.3 µM | > 100 µM | 63.2 µM | 88.2 µM | 59.4 µM
10 | CC(=O)O[C@@H]1[C@H](C)O[C@@H](O[C@@H]2O[C@@H](C(C)=O)CC3=C2C(=O)c2ccccc2C3=O)C(Br)[C@@H]1OC(C)=O (stereo partly drawn) [BCH2099, (1'S,1S,3R)-methyl-(1-[2',6'-dideoxy-3',4'-diacetoxy-2'-bromo-L-lyxohexopyranose]-5,10-dioxo-3,4,5,10-tetrahydronaphtho-[2,3-c]-pyran-3-yl) ketone] | 0.599 to 2 µM | 0.462 to 8.4 µM | 0.303 to 1.7 µM | 0.128 to 1.1 µM | 0.728 to 3.4 µM
11 | CC(=O)C1CC2=C(C(=O)c3ccccc3C2=O)C(O[C@H]2C[C@H](NC(=O)C(F)(F)F)[C@H](OS(C)(=O)=O)[C@H](C)O2)O1 (mixture of isomers) [BCH2095, (1'-S, 1-S, 3-R) and (1'-S, 1-R, 3-S)-methyl-(1-[2',3',4',6' tetradeoxy-3'-trifluoroacetamido-4'-O-methane-sulfonyl-L-lyxohexopyranose)-5,10-dioxo-3,4,5,10 tetrahydronaphtho-[2,3-c]pyran-3-yl) ketone] | 0.19 µM | 1.6 µM | 0.0996 µM | 0.14 µM | 0.37 µM
12 | CC(=O)O[C@@H]1[C@H](C)O[C@@H](O[C@H]2O[C@H](C(C)=O)CC3=C2C(=O)c2ccccc2C3=O)C(Br)[C@@H]1OC(C)=O (stereo partly drawn) [BCH2100, (1'S,1R,3S)-methyl-(1-[2',6'-dideoxy-3',4'-diacetoxy-2'-bromo-L-lyxohexopyranose]-5,10-dioxo-3,4,5,10-tetrahydronaphtho-[2,3-c]-pyran-3-yl) ketone] | 2.7 µM | 8.22 µM | 5.12 µM | 3 µM | 4 µM
13 | Nc1nc(C2CC3=C(CO2)C(=O)c2ccccc2C3=O)cs1 (stereo not shown) [BCH1189] | 6.5 µM | 26.6 µM | 16.6 µM | 14.3 µM | 12.5 µM
14 | CO[C@@H]1O[C@H](C(=O)Nc2ccccc2)CC2=C1C(=O)c1ccccc1C2=O (relative stereo) [BCH2042, (1,3-cis)-anline-(1-methoxy-5,10-dioxo-3,4,5,10-tetrahydro-1H-naphtho-[2,3-c]-pyran)-3-carboxamide] | 3.8 µM | 13.2 µM | 1.2 µM | 2.22 µM | 8 µM
